From patent US7964647B2 (Mutual Pharmaceutical Company, Inc., priority 2007, dated 2011)
Read-outs that look alike come from different tables or passages of the source.

Key:
[1] = Pharmacokinetic study of standard-dose acute gout regimen 4.8 mg over 6 hours (Example 6)
Method: This study was a single center, randomized, double-blind, double-dummy pharmacokinetic and exploratory ECG safety study.
Those randomized to moxifloxacin received 1×400 mg tablet.

[2] = metabolite after single and multiple 0.6 mg colchicine doses
Method: Subjects received a light breakfast served 60 minutes following dose administration in the morning and the evening dose was administered 90 minutes after an evening meal on Days 15 through 24 only. […] Study periods were separated by a 14-day washout. Following the single dose and the last dose of the multiple dose regimen (beginning on the mornings of Day 1 and Day 25, respectively), blood samples were collected (6 mL each) from each subject within 1 hour prior to dosing and after dose administration at study hours 0.5, 1, 1.5, 2, 3, 4, 6, 8, 10, 12, and 24 (while confined) and 36, 48, 72, and 96 (on an outpatient basis).

[3] = metabolite after low-dose colchicine 1.8 mg, all subjects
Method: This study was a single-center, single-period, open-label pharmacokinetic study conducted in healthy subjects under fasting conditions.
Subjects received 2×0.6 mg tablets initially followed by 1×0.6 mg tablet 1 hour later.

[4] = metabolite after standard-dose colchicine 4.8 mg over 6 hours, N = 8
[5] = standard-dose colchicine 4.8 mg

| SMILES | 3-DMC AUC∞, mean [1, 4] | 3-DMC Ke, mean [1, 4] | 3-DMC t1/2, mean [1, 4] | 3-DMC AUC0-t, mean ([1]; metabolite after standard-dose colchicine 4.8 mg over 6 hours, N = 13) | 3-DMC Tmax, mean ([1]; metabolite after standard-dose colchicine 4.8 mg over 6 hours, N = 14) | 3-DMC Cmax, mean ([1]; metabolite after standard-dose colchicine 4.8 mg over 6 hours, N = 15) | Mean 3-DMC AUC0-t as % of mean colchicine AUC0-t [1, 5] | Mean 3-DMC AUC∞ as % of mean colchicine AUC∞ [1, 5] | Mean 3-DMC Cmax as % of mean colchicine Cmax [1, 5] | 2-DMC plasma concentrations ([1]; metabolite after standard-dose colchicine 4.8 mg, all subjects) | 2-DMC plasma concentrations (all below LOQ) [2] | 2-DMC plasma concentrations [3] |
| --- | --- | --- | --- | --- | --- | --- | --- | --- | --- | --- | --- | --- |
| COc1c(O)cc2c(c1OC)-c1ccc(OC)c(=O)cc1[C@@H](NC(C)=O)CC2 [3-DMC, N-[(7S,12aS)-3-hydroxy-1,2,10-trimethoxy-9-oxo-5,6,7,9-tetrahydrobenzo[a]heptalen-7-yl]-acetamide] | 4.84 ng·h/mL | 0.1418 h⁻¹ | 6.93 h | 2.09 ng·h/mL | 5.06 h | 0.32 ng/mL | ~2% | ~4.1% | approximately 4.7% |  |  |  |
| COc1cc2c(c(OC)c1O)-c1ccc(OC)c(=O)cc1[C@@H](NC(C)=O)CC2 [2-DMC, N-[(7S,12aS)-2-hydroxy-1,3,10-trimethoxy-9-oxo-5,6,7,9-tetrahydrobenzo[a]heptalen-7-yl]-acetamide] |  |  |  |  |  |  |  |  |  | below LOQ | < 0.2 ng/mL | below the LOQ |
